These results are taken from PubChem BioAssay AID624491 (Broad Institute, 2012).

Activity calls are given as the source filed them.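 Rule for the calls: active = fitted curve crossing a set activation limit at or below the highest valid dose tested; inconclusive = flat fit at 30 to 70% activation, or poor fit; inactive = the rest, including signal decreases.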

The test system of the assay is D54 ERlucT glycosylation luciferase reporter, luminescence, 24 h. In words: blockers of NLG process in reporter cells – D54 ERlucT cells, luminescence, cherry-picks, dose response (AID 624491).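 Note: signal gain reflects blocked N-linked glycosylation of a luciferase reporter; actives raise luciferase signal so AC26 marks activators of the reporter.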
Regarding `O=C(Nc1ccc(-c2nc3cc(NC(=O)c4cccs4)ccc3o2)cc1)c1cccs1`, the AC26 is 4310 nM.

As to `Cc1ccc(CSc2ccc3nnc(-c4cccnc4)n3n2)cc1`, the AC26 is 1170 nM.

As to `CC(C)(C)c1ccc(OCC(=O)Nc2ccncc2)c(Br)c1`, the AC26 was 4130 nM.

Consider `Cc1cc(C)c2nc3nc(C)c(C)cc3c(N)c2c1`, for which the AC26 is 998 nM.

For the compound `CN(C)S(=O)(=O)c1ccc(N2CCCC2)c(C(=O)Nc2nc3ccc(F)cc3s2)c1`, the AC26 was 1540 nM.

Regarding `COc1ccc(C(=O)/C=C/c2ccccc2)c(O)c1`, the AC26 was 1520 nM.

For `COc1cc(/C=N/NC(=O)c2ccc(-c3ccccc3)cc2)cc(OC)c1OC`, the AC26 was 1350 nM.

Turning to `COc1ccc(C2=NOC(C(=O)NCc3ccc(F)cc3)C2)cc1OC` (configuration not stated), the AC26 was 4460 nM.

On to `CN(C)Cc1c(C(=O)N/N=C/c2ccccc2OCc2c(F)cccc2Cl)nnn1-c1nonc1N`, for which the AC26 is 4210 nM.

As to `c1ccc(C2=Nn3c(nnc3-c3n[nH]c4c3CCC4)SC2)cc1`, the AC26 is 4020 nM.

On to `CCOC(=O)c1ccccc1Nc1cn(C(C)=O)c2ccccc12`, for which the AC26 was 1790 nM.

As to `COc1cccc(C2=CC(c3cccc(OC)c3OC)n3nnnc3N2)c1` (configuration not stated), the AC26 is 1300 nM.

As to `COc1ccc(-c2cc(C)no2)cc1S(=O)(=O)Nc1ccccc1`, the AC26 is 3740 nM.

Regarding `O=C(CNC(=O)c1ccco1)N=Nc1c(O)n(CCc2ccccc2)c2ccccc12`, the AC26 is 1430 nM.

For `COc1cc(Nc2nc3c(N)cc(C(F)(F)F)cc3nc2-c2ccccc2)cc(OC)c1OC`, the AC26 was 868 nM.

With `COc1cc([C@@H]2c3cc4c(cc3[C@@H](OC)[C@H]3COC(=O)[C@H]23)OCO4)cc(OC)c1O`, the AC26 is 501 nM.

For the compound `CC(C)n1cc(NC(=O)c2cc(-c3ccccc3)on2)cn1`, the AC26 was 1230 nM.

Regarding `CCCCCC(O)C=CC1C(O)CC(O)C1CC=CCCCC(=O)O` (configuration not stated), the AC26 is 7.83 nM.

With `CC(=O)Nc1cccc(-c2ccnc3c2CC(C)(C(=O)NCc2ccco2)O3)c1` (configuration not stated), the AC26 was 617 nM.

With `COc1ccc2c(c1)OC[C@H]1[C@H]2N2C(=O)c3cc(Br)ccc3NC(=O)[C@@]2(C)[C@H]1c1ccccc1`, the AC26 is 976 nM.

As for `CCOc1ccc2[nH]c3c(N4CCc5ccccc5C4)ncnc3c2c1`, the AC26 is 3460 nM.

Regarding `O=C(NCCN1C(=O)S/C(=C\c2ccc(Cl)cc2Cl)C1=O)C1=COCCO1`, the AC26 was > 19500 nM (inactive).

In the case of `O=C(NCc1ccco1)c1nn2c(C(F)(F)F)cc(-c3cccs3)nc2c1Br`, the AC26 was 3250 nM.

Regarding `COc1ccc(C(=O)Nc2ccc3[nH]c(-c4cccc(OC)c4)cc(=O)c3c2)cc1`, the AC26 is 330 nM.

As for `Cc1cc2[nH]c3ccccc3c2c(C)n1`, the AC26 is 3670 nM.

For `Cc1ccc(C(=O)N/C(=C/c2cccs2)C(=O)NCCc2c[nH]c3ccccc23)cc1`, the AC26 was 1080 nM.

Turning to `CC1(C(=O)NCCC(F)(F)F)Cc2c(-c3cccc(C(F)(F)F)c3)ccnc2O1` (configuration not stated), the AC26 is 15200 nM.

`COc1cc2c(cc1OC)CN(c1ccc(C(F)(F)F)cn1)CC2`: the AC26 is 4710 nM.

For the compound `COc1ccc2c(c1)[C@H]1[C@H](CO2)[C@H](c2ccccc2)[C@]2(C)C(=O)Nc3ccc(F)cc3C(=O)N12`, the AC26 is 568 nM.

With `Cc1cc(C(=O)N/N=C/c2c3ccccc3cc3ccccc23)n[nH]1`, the AC26 is 6680 nM.

As to `Cc1ccc(Sc2c(CO)c(-c3ccccc3)nn2C)cc1`, the AC26 was 341 nM.

Regarding `COc1cc2c(cc1OC)C(c1cccs1)N(C(=O)c1ccncc1)CC2` (configuration not stated), the AC26 was 3030 nM.

Consider `N#Cc1ccc(-c2cccs2)nc1SCc1cccnc1`, for which the AC26 is 242 nM.

As to `Cc1ccc(-c2cc(C(=O)N3CC(C)OC(C)C3)c3ccccc3n2)o1` (configuration not stated), the AC26 was 4280 nM.

`COc1ccc2c(c1)OC[C@H]1[C@H]2N2C(=O)c3ccc(F)cc3NC(=O)[C@@]2(C)[C@H]1c1ccccc1`: the AC26 was 1230 nM.

For `CCNc1nc(NC(C)(C)C)nc(SC(C(C)=O)C(C)=O)n1`, the AC26 was 208 nM.

Consider `COc1ccc2nc(C)cc(Nc3ccc(N4CCOCC4)cc3)c2c1`, for which the AC26 was 1260 nM.

As for `COc1cc(-c2cc(OC)c(O)c(OC)c2)cc(OC)c1O`, the AC26 was 3600 nM.

Regarding `CC(Nc1nc(-c2cccnc2)nc2ccccc12)c1ccccc1` (configuration not stated), the AC26 was 2830 nM.

`COc1ccc(C2=NOC(C(=O)NCc3ccco3)C2)cc1` (configuration not stated): the AC26 was 2400 nM.

With `CCc1ccc(Nc2n[n+](-c3ccccc3)c(-c3ccc(N(CC)CC)cc3)s2)cc1`, the AC26 is 7030 nM.

Consider `O=C1OCC2=C1C(c1ccc3c(c1)OCO3)c1cc3c(cc1O2)OCO3` (configuration not stated), for which the AC26 was 661 nM.

As to `COc1cc(C2C(C#N)=C(N)Oc3cc(O)ccc32)cc(OC)c1OC` (configuration not stated), the AC26 was 1020 nM.

Regarding `O=C1CCCC2=C1C1(CCCCC1)N=C(Nc1nc3ccccc3o1)N2`, the AC26 is 5790 nM.

`CCN(CC)CCCNc1nc2ccccc2c2nc(-c3ccncc3)nn12`: the AC26 is 2320 nM.

As to `Cn1c(=O)[nH]c(=O)c2c1nc(N1CCN(Cc3ccccc3)CC1)n2CCCc1ccccc1`, the AC26 was 436 nM.

Take `COc1ccccc1N1CCN(c2ccc3c(c2)S(=O)(=O)c2cccc(C(=O)NCC4CC4)c2C3=O)CC1`: the AC26 was 4550 nM.

With `O=C(Nc1ccc(S(=O)(=O)N2CCOCC2)cc1)c1cc(-c2cc(Cl)ccc2O)n[nH]1`, the AC26 is 1260 nM.

In the case of `Cn1c(-c2ccccc2)c(/C=N/NC(=O)c2cccnc2)c2ccccc21`, the AC26 was 247 nM.

With `O=C(CCl)Nc1cc(S(=O)(=O)N2CCCCCC2)ccc1Cl`, the AC26 is 441 nM.

As for `CCOC(=O)c1[nH]c(C)c(C(=O)Nc2cc(OC)ccc2OC)c1C`, the AC26 is 322 nM.

Take `Cc1ccccc1OCCOC(=O)c1c(-c2ccccc2)noc1C`: the AC26 is 8510 nM.

Regarding `COCCCNC(=O)Cc1c(C)c2c(cc(C)c3c(C(C)(C)C)coc32)oc1=O`, the AC26 is 1510 nM.

Turning to `CCOc1ccc(Cl)cc1C1=CC(=O)C[C@H](c2ccc(OC)cc2)C1`, the AC26 was 472 nM.

Turning to `CN=C(SCC(=O)c1cccc(Cl)c1)c1c(O)n(C)c(=O)n(C)c1=O`, the AC26 is 2590 nM.

Regarding `CCOc1ccc(/C=C2\SC(N3CCCCC3)=NC2=O)cc1`, the AC26 is 1100 nM.

As for `O=C(NCc1cccs1)C1CCN(c2ccc(S(=O)(=O)N3CCOCC3)cc2Cl)CC1`, the AC26 was 646 nM.
